# Source: patent US20260315499A1, “2'- {HETEROCYCLYL (ARYL/ALKYL) METHYL} - CANNABIDIOL COMPOUNDS AND PROCESS FOR PREPARATION THEREOF” (COUNCIL OF SCIENTIFIC & INDUSTRIAL RESEARCH, priority 2023, published 2026)
# “And” between values parts separate entries of the source, which are not always exact repeats. Identical values can stand only once. Like-named read-outs stand apart in the source and are kept apart here.
# Legend:
# [1] = Cell viability assay in differentiated neuronal cells (MTT), N2A; assay type: cell-based; settings: mouse, read-out: % Cell viability ± SD, N2A
# From the text: (§1) In the present disclosure outlined herein, a focused library of cannabidiol analogues were studied for possible neuro-protective potential employing cell line-based stress model systems which mimic the biological stress conditions in vitro (J Cell Biochem., 2018, 119(8), 6482-6491).
# (§2) Human neuroblastoma cells (SHSY5Y) and mouse neuroblastoma cells (N2A) were procured from American Type Culture Collection (ATCC). SHSY5Y cell cultures were maintained in DMEM F12 (Invitrogen) whereas N2A were cultured in DMEM (Invitrogen) with 10% Fetal Bovine Serum (Gibco) medium, subjected to differentiation to acquire neuronal morphology (employing differentiation media DMEM-F12, 3-5% FBS, (For differentiation, low concentration of FBS was used) and 50 μM retinoic acid). Differentiated cells were later seeded into 96 well plates, at a density of 1×10^4 before being incubated for 48 hrs with the synthesized library. The exhausted culture media was substituted with new culture media containing 0.5 mg/ml MTT dye. Eventually, the OD at 490 nm excitation was measured using a 96-well plate reader. The proportion of viable cells was determined as percentage of absorbance of untreated cultures relative to control.
# [2] = system: differentiated SHSY5Y cell cultures; assay: Neuroprotective potential in differentiated SHSY5Y after 96 hrs, concentration series with and without corticosterone; assay type: cell-based, human
# [3] = Cell viability assay in macrophage RAW264.7 cells (MTT); assay type: cell-based; settings: mouse, read-out: % cell viability ± SD
# Method: RAW264.7 cells were seeded in 96-well cell culture plates at a density of 1×10^4 cells per well and incubated overnight at 37° C. with 5% CO2. Next day, the cells were treated with CBD or its derivatives at 5 μM and/or 10 μM concentration for 24 hrs. The MTT dye (2.5 mg/ml, 20 μL) was added to each well 4 hrs before termination (Molecules. 2022, 27, 8068). After 4 hrs of incubation with MTT, the supernatant was discarded, and the formazan crystals were dissolved by adding 100 μL DMSO. The absorbance was recorded at 540 nm on microplate reader (Tecan Infinite Pro).
# TrkB stable cells SHSY5Y = assay: Cytoprotective effect in TrkB stable cells SHSY5Y, 96 hrs; assay type: cell-based, human; settings: 96 hrs; for viability at 20 µM: Homo sapiens, SH-SY5Y, 96 h, read-out: % Cell viability ± SD
# Method: In another experiment, the cytoprotective effect of A1 as well as parent molecule B1 was determined in TrkB stable cells SHSY5Y.
# depression mice model [4] = assay: In vivo corticosterone induced depression model: Tail Suspension Test (TST); parameters: species or system mouse (male C57); settings: A1 20 mg/kg, fluoxetine 18 mg/kg
# Method: A1 (20 mg/kg, oral) dissolved in normal saline was given for 3 consecutive weeks following corticosteroid stress. The sucrose preference test was employed, tail suspension test, and forced swim test to evaluate behavioral distress.
# Tail Suspension Test (TST) is a behavioral test employed to assess perturbations expected to influence depression like phenotypes. TST is grounded on the reflection that the extent of immobility is allied with depressing phenotype of mice overturned by antidepressants. Mice were positioned 2 cm from their tail tips and 5 cm above the ground suspending the tails using adhesive tape for the free movement (Acta Neuropathol Commun., 2016, 4(1), 108).
# The contemporary immobility was alluded to as interruption in motion, where a blind assessor evaluates the disappointed aspect of display before scoring it.
# [5] = system: nitric oxide (NO) production in RAW264.7 macrophages; assay: In vitro anti-inflammatory activity: nitric oxide production (Griess) in LPS-exposed RAW264.7 macrophages; assay type: cell-based, mouse; settings: Mus musculus, RAW264.7, LPS 24 hrs, read-out: % NO Inhibition ± SD
# Method: Measurement of Nitric oxide: RAW264.7 macrophages were seeded in 96-well plates with a density of 0.5×10^5 cells/well and incubated overnight at 37° C. in a 5% CO2 atmosphere. The cells were treated with different concentration of CBD and its analogues and exposed to LPS for 24 hrs. For nitric oxide (NO) determination, the cell culture supernatant was taken and mixed with equal volume of Griess reagent in another 96 well plate at room temperature (Biomed Pharmacother., 2017, 92, 175-186). The absorbance was measured at 540 nm. The final calculations were determined on a NaNO2 standard curve.
# p-Erk 44/42 = assay: Survival pathway protein expression by western blotting in SHSY5Y; assay type: cell-based, human; settings: for Relative Protein Expression p ERK 44/42: A1 + Cort.
# depression mice model [6] = assay: In vivo corticosterone induced depression model: Forced Swim Test; parameters: species or system mouse (male C57)
# Method: In vivo efficacy (ameliorates behavioral despair) of A1 in corticosterone induced model of stress (J. Neurochem., 2018 146, 722 734). […] A1 (20 mg/kg, oral) dissolved in normal saline was given for 3 consecutive weeks following corticosteroid stress. The sucrose preference test was employed, tail suspension test, and forced swim test to evaluate behavioral distress. We noticed that A1 can resurrect mice in stressful situations. […]
# The forced swim test was employed to evaluate behavioral melancholy in depressed subjects. Each animal was individually conditioned in a glass cylinder 20 cm long, 10 cm deep and 14 cm radius of curvature. After being submerged in water for 5 mins, the mice's cumulative stationary episode, struggle in water, and eventual floating condition were evaluated. The duration for which the animals were motionless while attempting to hold both of their front limbs still was calculated by interpreting the visualizations portraying behavioral despair (Front Behav Neurosci., 2018, 12, 42).
# [7] = system: differentiated SHSY5Y cell cultures; assay: Neuroprotective potential in differentiated SHSY5Y after 96 hrs, concentration series with and without corticosterone; assay type: cell-based, human; remark: listed apart in the source
# From the text: Furthermore, A1 intervention in presence of corticosterone evidenced neuroprotective effect against corticosterone induced impairment and cell death.
# [8] = Cell viability assay in differentiated neuronal cells (MTT), SHSY5Y; assay type: cell-based; settings: human, read-out: % Cell viability ± SD, SHSY5Y
# From the text: as §1, §2
smiles,measurement,setting,value
"C=C(C)[C@@H]1CCC(C)=C[C@H]1c1c(O)cc(CCCCC)c(CN2CCOCC2)c1O [A1, 2′-(morpholin-1-ylmethyl)-cannabidiol]","viability at 48 h, 20 µM",[1],114 ± 2.28%
same,cell viability compared to positive control DHF (in words),"[2]; A1 alone 1.25, 2.5, 5, 10, 20 and 40 μM",no significant variation in cell viability when compared to positive control DHF
same,viability at 1.25 µM,"[2]; Homo sapiens, SH-SY5Y, 96 h, A1 1.25 μM, without Cort",102%
same,viability at 2.5 µM,"[2]; Homo sapiens, SH-SY5Y, 96 h, A1 2.5 μM, without Cort",108%
same,viability at 5 µM,"[2]; Homo sapiens, SH-SY5Y, 96 h, A1 5 μM + Cort 400 μM, 96 hrs",103%
same,viability at 5 µM,"[2]; Homo sapiens, SH-SY5Y, 96 h, A1 5 μM, without Cort",108%
same,viability at 10 µM,"[2]; Homo sapiens, SH-SY5Y, 96 h, A1 10 μM, without Cort",117%
same,viability at 20 µM,"[2]; Homo sapiens, SH-SY5Y, 96 h, A1 20 μM, without Cort",115%
same,viability at 40 µM,"[2]; Homo sapiens, SH-SY5Y, 96 h, A1 40 μM, without Cort",115%
same,toxicity (in words),"[2]; concentrations as high as 40 μM, up to 96 hrs, with and without corticosterone",non-toxic even at concentrations as high as 40 μM
same,"viability at 24 h, 5 µM","[3]; RAW264.7, 5 μM",93.1 ± 1.1%
same,"viability at 24 h, 10 µM","[3]; RAW264.7, 10 μM",83.5 ± 0.6%
same,cell viability versus control (in words),TrkB stable cells SHSY5Y,increased cell viability versus control
same,viability at 20 µM,TrkB stable cells SHSY5Y; test compound 20 μM + Cort. 400 μM,97.2 ± 1.13%
same,viability at 20 µM,"TrkB stable cells SHSY5Y; test compound alone, 20 μM",110 ± 1.61%
same,% Immobility (sec) ± SD (dead time),depression mice model [4]; with Cort. 35 μg/ml,33.05 ± 5.62 s
same,% Latency to immobility (sec) ± SD,depression mice model [4]; with Cort. 35 μg/ml,36.90 ± 14.54 s
same,% Immobility (sec) ± SD (dead time),depression mice model [4]; without Cort.,28.76 ± 9.01 s and 28.76 ± 9.10 s
same,% Latency to immobility (sec) ± SD,depression mice model [4]; without Cort.,54.35 ± 9.74 s
same,inhibition at 5 µM,[5]; 5 μM,7.1 ± 0.8%
same,inhibition at 10 µM,[5]; 10 μM,12.3%
same,Relative Protein Expression p ERK 44/42,p-Erk 44/42; 0 hr,1.00
same,Relative Protein Expression p ERK 44/42,p-Erk 44/42; 0.5 hr,1.32
same,Relative Protein Expression p ERK 44/42,p-Erk 44/42; 1 hr,3.29
same,Relative Protein Expression p ERK 44/42,p-Erk 44/42; 2 hr,8.33
same,Relative Protein Expression p ERK 44/42,p-Erk 44/42; 4 hr,9.69
same,Relative Protein Expression p ERK 44/42,p-Erk 44/42; 6 hr,10.62
same,expression of p-Erk 44/42 (in words),"p-Erk 44/42; A1 for multiple time spans, corticosterone",remarkably increased
same,% Immobility (sec) ± SD (dead time),depression mice model [6]; with Cort.,17.67 ± 5.12 s
same,% Latency to immobility (sec) ± SD,depression mice model [6]; with Cort.,34.06 ± 14.03 s
same,% Immobility (sec) ± SD (dead time),depression mice model [6]; without Cort.,24.22 ± 5.30 s
same,% Latency to immobility (sec) ± SD,depression mice model [6]; without Cort.,44.59 ± 19.55 s
same,viability at 1.25 µM,"[7]; Homo sapiens, SH-SY5Y, 96 h, A1 1.25 μM + Cort 400 μM, 96 hrs",83.8%
same,viability at 2.5 µM,"[7]; Homo sapiens, SH-SY5Y, 96 h, A1 2.5 μM + Cort 400 μM, 96 hrs",93.6%
same,viability at 10 µM,"[7]; Homo sapiens, SH-SY5Y, 96 h, A1 10 μM + Cort 400 μM, 96 hrs",113%
same,viability at 20 µM,"[7]; Homo sapiens, SH-SY5Y, 96 h, A1 20 μM + Cort 400 μM, 96 hrs",108%
same,viability at 40 µM,"[7]; Homo sapiens, SH-SY5Y, 96 h, A1 40 μM + Cort 400 μM, 96 hrs",102%
same,neuroprotection against corticosterone (in words),[7]; in presence of corticosterone,substantial level of neuroprotection by significantly lowering the corticosterone cytotoxic activity
same,"viability at 48 h, 20 µM",[8],115.7 ± 0.71%
